The structures appear in SMILES notation. Bounds are passed on as bounds.

In one series the target is T1, Aurora C (Homo sapiens, UniProt Q9UQB9).
T1 sequence (Q9UQB9 1-309): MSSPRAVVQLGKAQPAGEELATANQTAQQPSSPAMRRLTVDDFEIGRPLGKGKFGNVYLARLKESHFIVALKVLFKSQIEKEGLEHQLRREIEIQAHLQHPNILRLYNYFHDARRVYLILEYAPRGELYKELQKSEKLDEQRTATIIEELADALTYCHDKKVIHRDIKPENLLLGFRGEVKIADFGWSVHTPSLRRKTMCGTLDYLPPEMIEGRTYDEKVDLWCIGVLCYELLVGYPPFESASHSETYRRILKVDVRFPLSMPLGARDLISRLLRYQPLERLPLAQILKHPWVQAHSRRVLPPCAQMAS
The conditions noted are these: cited from earlier work.

A short description of series [1]: Thermodynamic solubility assessment in biological media (FaSSIF, FeSSIF, FaSSGF), HPLC of mother liquors. The format is physicochemical. The conditions noted are these: listed as Compound A free base. As for the experimental part: The thermodynamic solubility of Compound A free base, Compound A fumarate Form 1 and Compound A hemi-fumarate Form 3 was assessed in 3 biological media: Fasted State Simulated Intestinal Fluid (FaSSIF); Fed State Simulated Intestinal Fluid (FeSSIF) and Fasted State Simulated Gastric Fluid (FaSSGF).
The following procedure was carried out. Approximately 10 mg of material was weighed into 3×1.5 mL glass vials. 0.02 mL aliquots of appropriate buffer were added to each vial until a final concentration of 10 mg/mL was obtained. The samples were then filtered via centrifugation and the mother liquors analyzed by HPLC.

The next series addresses T2, Aurora A (Homo sapiens, UniProt O14965).
T2 sequence (O14965 1-403): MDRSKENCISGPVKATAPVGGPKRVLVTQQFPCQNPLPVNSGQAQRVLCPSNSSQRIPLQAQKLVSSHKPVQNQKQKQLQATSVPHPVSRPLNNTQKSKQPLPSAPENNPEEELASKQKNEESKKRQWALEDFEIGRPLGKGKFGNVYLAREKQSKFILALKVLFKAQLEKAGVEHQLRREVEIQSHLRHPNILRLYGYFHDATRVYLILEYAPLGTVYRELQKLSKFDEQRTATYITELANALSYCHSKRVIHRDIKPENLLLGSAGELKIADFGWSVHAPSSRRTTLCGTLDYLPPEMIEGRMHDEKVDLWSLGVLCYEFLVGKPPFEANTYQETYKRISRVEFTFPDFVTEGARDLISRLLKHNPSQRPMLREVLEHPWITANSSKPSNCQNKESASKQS
The settings on record: cited from earlier work.

In a further series the target is hERG (Homo sapiens, UniProt Q12809). The conditions noted are these: cited from earlier work.
The next series concerns the target T3, FLT3 (Homo sapiens, UniProt P36888).
T3 sequence (P36888 27-993): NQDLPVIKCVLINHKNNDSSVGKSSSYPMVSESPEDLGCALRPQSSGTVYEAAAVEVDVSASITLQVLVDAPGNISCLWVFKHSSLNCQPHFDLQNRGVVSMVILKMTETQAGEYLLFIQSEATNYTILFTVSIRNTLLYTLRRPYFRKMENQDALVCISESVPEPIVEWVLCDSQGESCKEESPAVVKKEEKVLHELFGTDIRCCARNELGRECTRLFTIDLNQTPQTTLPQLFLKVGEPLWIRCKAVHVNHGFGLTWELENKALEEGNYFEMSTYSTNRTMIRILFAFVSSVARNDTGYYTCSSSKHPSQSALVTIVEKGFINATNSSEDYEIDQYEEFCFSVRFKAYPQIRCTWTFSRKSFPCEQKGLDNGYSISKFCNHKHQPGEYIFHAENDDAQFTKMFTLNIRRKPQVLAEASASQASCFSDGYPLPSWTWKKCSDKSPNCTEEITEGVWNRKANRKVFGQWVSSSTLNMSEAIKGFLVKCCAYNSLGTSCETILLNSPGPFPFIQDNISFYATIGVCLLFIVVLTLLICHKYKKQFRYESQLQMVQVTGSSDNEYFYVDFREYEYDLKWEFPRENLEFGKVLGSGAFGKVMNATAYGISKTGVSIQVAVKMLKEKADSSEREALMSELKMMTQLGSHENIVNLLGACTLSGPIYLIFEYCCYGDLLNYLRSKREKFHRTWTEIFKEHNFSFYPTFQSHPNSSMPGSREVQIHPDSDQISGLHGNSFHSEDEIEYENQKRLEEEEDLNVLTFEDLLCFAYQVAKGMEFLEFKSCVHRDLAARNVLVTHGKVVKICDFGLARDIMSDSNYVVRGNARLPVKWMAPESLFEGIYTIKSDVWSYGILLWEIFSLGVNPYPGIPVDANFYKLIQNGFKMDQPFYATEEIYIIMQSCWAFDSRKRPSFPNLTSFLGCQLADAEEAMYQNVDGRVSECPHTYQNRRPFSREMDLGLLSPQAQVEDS
The settings on record: cited from earlier work.

In the next series the target is Aurora B (Homo sapiens, UniProt Q96GD4). The conditions noted are these: cited from earlier work.
The test system of the next series is cytochrome P450. The conditions noted are these: cited from earlier work.

Sequence of hERG (Q12809 whole entry): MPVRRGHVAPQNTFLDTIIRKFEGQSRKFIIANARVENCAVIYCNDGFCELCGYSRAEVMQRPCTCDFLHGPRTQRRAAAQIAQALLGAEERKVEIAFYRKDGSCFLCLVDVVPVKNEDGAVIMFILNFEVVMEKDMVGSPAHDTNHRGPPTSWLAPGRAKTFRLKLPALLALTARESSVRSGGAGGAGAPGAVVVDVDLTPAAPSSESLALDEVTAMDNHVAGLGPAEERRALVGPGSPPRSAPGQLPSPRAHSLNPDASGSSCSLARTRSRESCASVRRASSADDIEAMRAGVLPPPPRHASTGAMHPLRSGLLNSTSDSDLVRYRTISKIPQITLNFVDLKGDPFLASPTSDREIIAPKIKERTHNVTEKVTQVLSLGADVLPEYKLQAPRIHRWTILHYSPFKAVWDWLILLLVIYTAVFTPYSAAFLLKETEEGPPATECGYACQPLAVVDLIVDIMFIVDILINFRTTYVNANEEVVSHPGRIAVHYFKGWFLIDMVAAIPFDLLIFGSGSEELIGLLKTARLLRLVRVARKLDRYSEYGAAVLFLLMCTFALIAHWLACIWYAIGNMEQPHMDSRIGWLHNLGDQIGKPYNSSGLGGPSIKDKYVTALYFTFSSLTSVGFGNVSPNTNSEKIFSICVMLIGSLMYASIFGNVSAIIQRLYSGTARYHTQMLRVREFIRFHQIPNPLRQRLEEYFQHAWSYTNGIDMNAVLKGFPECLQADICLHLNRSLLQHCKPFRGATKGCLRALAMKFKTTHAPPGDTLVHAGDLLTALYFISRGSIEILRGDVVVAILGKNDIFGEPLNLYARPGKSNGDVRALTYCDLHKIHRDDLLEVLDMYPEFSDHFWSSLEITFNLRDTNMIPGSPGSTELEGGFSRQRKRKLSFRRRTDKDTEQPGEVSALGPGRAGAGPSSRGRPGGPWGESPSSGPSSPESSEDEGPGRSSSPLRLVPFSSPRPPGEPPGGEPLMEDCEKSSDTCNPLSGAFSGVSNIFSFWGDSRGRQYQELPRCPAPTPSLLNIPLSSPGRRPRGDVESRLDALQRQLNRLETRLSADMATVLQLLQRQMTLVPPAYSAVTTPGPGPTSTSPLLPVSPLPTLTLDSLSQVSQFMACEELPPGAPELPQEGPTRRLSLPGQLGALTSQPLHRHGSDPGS
Sequence of Aurora B (Q96GD4 whole entry): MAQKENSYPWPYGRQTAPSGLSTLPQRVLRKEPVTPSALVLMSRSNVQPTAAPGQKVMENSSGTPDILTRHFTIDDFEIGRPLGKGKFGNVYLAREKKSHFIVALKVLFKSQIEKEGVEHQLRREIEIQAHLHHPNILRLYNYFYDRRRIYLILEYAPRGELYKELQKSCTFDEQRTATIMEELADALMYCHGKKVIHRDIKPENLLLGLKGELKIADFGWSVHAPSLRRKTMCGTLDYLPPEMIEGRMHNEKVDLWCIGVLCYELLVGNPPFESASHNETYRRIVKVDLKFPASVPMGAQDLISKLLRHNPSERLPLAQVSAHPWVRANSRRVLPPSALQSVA

Consider `Cc1nn(C)cc1-c1nc2c(N3CCN(Cc4ccc(Cl)cc4)CC3)c(Cl)cnc2[nH]1` [Compound A, 6-chloro-7-(4-(4-chlorobenzyl)piperazin-1-yl)-2-(1,3-dimethyl-1H-pyrazol-4-yl)-3H-imidazo[4,5-b]pyridine], for which the “activity against Aurora C kinase” value at Aurora C is recorded as “high activity”. Also, the “Concentration (thermodynamic solubility)” value in series [1] (FaSSGF pH 1.6) is 1500 µg/mL; in series [1] (FaSSIF pH 6.5) it was below 100 µg/mL; in series [1] (FeSSIF pH 5.0) it was below 100 µg/mL. Moreover, on Aurora A, the “activity against Aurora A kinase” value is on record as “high activity”. In addition, the “interaction with hERG” value on hERG is reported as “minimal interaction”. Also, the “activity against FLT3 kinase” value at FLT3 was “high activity”. In addition, the “activity against Aurora B kinase” value at Aurora B was “high activity”. Also, in the series on cytochrome P450, the “interaction with cytochrome P450 activity” value was “minimal interaction”.

Values taken from patent US12624027B2, “Salts and polymorphic forms of 6-chloro-7-(4-(4-chlorobenzyl)piperazin-1-yl)-2-(1,3-dimethyl-1H-pyrazol-4-yl)-3H-imidazo[4,5-b]pyridine” (ELLIPSES PHARMA LTD, priority 2020, dated 2026).
